# Tested on: microorganisms
# Assay: Morphology, biofilm and growth disruption by peptides (Table 5)
# Assay type: cell-based
# Set-up: key: A: Peptide aggregates; B: Less hyphal formation; Clumps; Diffuse clumps and small polyps; F: Diffuse growth; H: Thin; I: Growth inhibition; Microcolony formation; Rippled; Small polyps; Thick; W: Halo formation on top, microlonies on bottom
# Source text: In certain embodiments peptides that induce alterations in phenotype or other biological activities can also be used as antimicrobial effector moieties.
substance,measurement,setting,value
FESKILNASKELDKEKKVNTALSFNSHQDFAKAYQNGKI [PF-606],"Organism, effect (morphology, biofilm and growth disruption)",C. albicans,C. albicans (B)
same,"Organism, effect (morphology, biofilm and growth disruption)",MRSA,MRSA (I)
same,"Organism, effect (morphology, biofilm and growth disruption)",S. epidermidis,S. epidermidis (I)
same,"Organism, effect (morphology, biofilm and growth disruption)",S. mutans,S. mutans (I)
same,"Organism, effect (morphology, biofilm and growth disruption)",S. pneumoniae,S. pneumoniae (H)
PF-571 (SDLLYYPNENREDSPAGVVKEVKE; Peptide with targeting and/or antimicrobial activity),"Organism, effect (morphology, biofilm and growth disruption)",B. subtilis,B. subtilis (D)
PF-220 (VDPADDGTRHIRPEDGDPIEIDE; Peptide with targeting and/or antimicrobial activity),"Organism, effect",S. pneumoniae,S. pneumoniae (H)
PF-586 (FFNQANYFFKEF; Peptide with targeting and/or antimicrobial activity),"Organism, effect (morphology, biofilm and growth disruption)",C. jejuni,C. jejuni (D)
same,"Organism, effect (morphology, biofilm and growth disruption)",E. coli,E. coli (C)
same,"Organism, effect (morphology, biofilm and growth disruption)",E. faecalis,E. faecalis (D)
same,"Organism, effect (morphology, biofilm and growth disruption)",MRSA,MRSA (D)
same,"Organism, effect (morphology, biofilm and growth disruption)",S. epidermidis,S. epidermidis (C)
same,"Organism, effect (morphology, biofilm and growth disruption)",S. pneumoniae,S. pneumoniae (D)
PF-581 (WTARARR; Peptide with targeting and/or antimicrobial activity),"Organism, effect (morphology, biofilm and growth disruption)",C. jejuni,C. jejuni (A)
same,"Organism, effect (morphology, biofilm and growth disruption)",E. faecalis,E. faecalis (A)
same,"Organism, effect (morphology, biofilm and growth disruption)",MRSA,MRSA (A)
same,"Organism, effect (morphology, biofilm and growth disruption)",S. pneumoniae,S. pneumoniae (A)
MRFGSLALVAYDSAIKHSWPRPSSVRRLRM [PF-672],"Organism, effect (morphology, biofilm and growth disruption)",B. subtilis,B. subtilis (I)
same,"Organism, effect (morphology, biofilm and growth disruption)",C. albicans,C. albicans (I)
same,"Organism, effect (morphology, biofilm and growth disruption)",C. jeikeium,C. jeikeium (R)
same,"Organism, effect (morphology, biofilm and growth disruption)",E. faecalis,E. faecalis (I)
same,"Organism, effect (morphology, biofilm and growth disruption)",MRSA,MRSA (I)
same,"Organism, effect (morphology, biofilm and growth disruption)",S. epidermidis,S. epidermidis (I)
same,"Organism, effect (morphology, biofilm and growth disruption)",S. pneumoniae,S. pneumoniae (I)
PF-264 (MQSLSNRQSLIASYILMGIFLSFGYPPASLSKFFCRLSHL; Peptide with targeting and/or antimicrobial activity),"Organism, effect",M. luteus,M. luteus (H)
PF-139 (ALSKPAIQARTLCRRQDPP; Peptide with targeting and/or antimicrobial activity),"Organism, effect",C. jeikeium,C. jeikeium (R)
same,"Organism, effect",M. luteus,M. luteus (C)
same,"Organism, effect",S. epidermidis,S. epidermidis (M)
PF-431 (VAYAAICWW; Peptide with targeting and/or antimicrobial activity),"Organism, effect (morphology, biofilm and growth disruption)",C. jejuni,C. jejuni (R)
same,"Organism, effect (morphology, biofilm and growth disruption)",E. faecalis,E. faecalis (R)
same,"Organism, effect (morphology, biofilm and growth disruption)",MRSA,MRSA (C)
same,"Organism, effect (morphology, biofilm and growth disruption)",S. epidermidis,S. epidermidis (M)
same,"Organism, effect (morphology, biofilm and growth disruption)",S. pneumoniae,S. pneumoniae (R)
PF-449 (MPTTKSKQKGWTNTKKASNTQ; Peptide with targeting and/or antimicrobial activity),"Organism, effect (morphology, biofilm and growth disruption)",S. pneumoniae,S. pneumoniae (H)
EILNNNQVIKELTMKYKTQFESNLGGWTARARR [PF-580],"Organism, effect (morphology, biofilm and growth disruption)",M. luteus,M. luteus (C)
same,"Organism, effect (morphology, biofilm and growth disruption)",MRSA,MRSA (M)
same,"Organism, effect (morphology, biofilm and growth disruption)",S. epidermidis,S. epidermidis (M)
same,"Organism, effect (morphology, biofilm and growth disruption)",S. pneumoniae,S. pneumoniae (C)
PF-290 (MVHDMTNGTLIIVKH; Peptide with targeting and/or antimicrobial activity),"Organism, effect",S. epidermidis,S. epidermidis (C)
PF-274 (SIQEAEKIIKNDPFYIHDVADYDFMWFEPSKSLEEIKEFV; Peptide with targeting and/or antimicrobial activity),"Organism, effect",M. luteus,M. luteus (M)
PF-335 (AAYPIEDWSDWYEDFFIMLSNI; Peptide with targeting and/or antimicrobial activity),"Organism, effect",B. subtilis,B. subtilis (C)
same,"Organism, effect",S. epidermidis,S. epidermidis (C)
PF-399 (FPIISALLGAIICIAIYSFIVNRKA; Peptide with targeting and/or antimicrobial activity),"Organism, effect",E. coli,E. coli (C)
same,"Organism, effect",E. faecalis,E. faecalis (C)
same,"Organism, effect",MRSA,MRSA (C)
same,"Organism, effect",S. epidermidis,S. epidermidis (C)
PF-582 (NLKTIEKECPFCNNKMDIKLKD; Peptide with targeting and/or antimicrobial activity),"Organism, effect (morphology, biofilm and growth disruption)",E. faecalis,E. faecalis (A)
PF-485 (KNSMSRSIALID; Peptide with targeting and/or antimicrobial activity),"Organism, effect (morphology, biofilm and growth disruption)",S. pneumoniae,S. pneumoniae (A)
PF-615 (FLNRFIFYIFTVKTKSALIKNLFLD; Peptide with targeting and/or antimicrobial activity),"Organism, effect (morphology, biofilm and growth disruption)",C. jejuni,C. jejuni (D)
same,"Organism, effect (morphology, biofilm and growth disruption)",E. coli,E. coli (C)
same,"Organism, effect (morphology, biofilm and growth disruption)",E. faecalis,E. faecalis (D)
same,"Organism, effect (morphology, biofilm and growth disruption)",MRSA,MRSA (D)
same,"Organism, effect (morphology, biofilm and growth disruption)",S. epidermidis,S. epidermidis (D)
same,"Organism, effect (morphology, biofilm and growth disruption)",S. pneumoniae,S. pneumoniae (D)
PF-541 (RRNLNSPNIKTRKRALKIIKQHQRSK; Peptide with targeting and/or antimicrobial activity),"Organism, effect (morphology, biofilm and growth disruption)",E. coli,E. coli (H)
same,"Organism, effect (morphology, biofilm and growth disruption)",S. pneumoniae,S. pneumoniae (H)
PF-C293 (IIIILPKIYLVCKTV; Peptide with targeting and/or antimicrobial activity),"Organism, effect (morphology, biofilm and growth disruption)",F. nucleatum,F. nucleatum (T)
same,"Organism, effect (morphology, biofilm and growth disruption)",P. gingivalis,P. gingivalis (R)
same,"Organism, effect (morphology, biofilm and growth disruption)",S. mutans,S. mutans (F)
FQKPFTGEEVEDFQDDDEIPTII [PF-437],"Organism, effect (morphology, biofilm and growth disruption)",S. pneumoniae,S. pneumoniae (I)
PF-415 (MIDVTIGQKSKTGAFNASYSICFSGENFSF; Peptide with targeting and/or antimicrobial activity),"Organism, effect",S. pneumoniae,S. pneumoniae (D)
KNKKQTDILEKVKEILDKKKKTKSVGQKLY [PF-538],"Organism, effect (morphology, biofilm and growth disruption)",S. pneumoniae,S. pneumoniae (H)
PF-178 (EVYSSPTNNVAITVQNN; Peptide with targeting and/or antimicrobial activity),"Organism, effect",E. coli,E. coli (C)
same,"Organism, effect",MRSA,MRSA (M)
same,"Organism, effect",S. epidermidis,S. epidermidis (D)
same,"Organism, effect",S. pneumoniae,S. pneumoniae (D)
PF-296 (GAFGMPSIKTNTICGEKGKFISACDAWLSNLK; Peptide with targeting and/or antimicrobial activity),"Organism, effect",B. subtilis,B. subtilis (C)
same,"Organism, effect",S. epidermidis,S. epidermidis (C)
PF-C214 (GGHKQLVIEPLVSQ; Peptide with targeting and/or antimicrobial activity),"Organism, effect (morphology, biofilm and growth disruption)",F. nucleatum,F. nucleatum (T)
KFSDQIDKGQDALKDKLGDL [PF-525],"Organism, effect (morphology, biofilm and growth disruption)",S. pneumoniae,S. pneumoniae (H)
MIHLTKQNTMEALHFIKQFYDMFFILNFNV [PF-040],"Organism, effect",B. subtilis,B. subtilis (D)
same,"Organism, effect",C. jeikeium,C. jeikeium (D)
same,"Organism, effect",C. jejuni,C. jejuni (D)
same,"Organism, effect",E. coli,E. coli (C)
same,"Organism, effect",M. luteus,M. luteus (D)
same,"Organism, effect",MRSA,MRSA (D)
same,"Organism, effect",P. mirabilis,P. mirabilis (C)
same,"Organism, effect",S. epidermidis,S. epidermidis (D)
same,"Organism, effect",S. mutans,S. mutans (F)
same,"Organism, effect",S. pneumoniae,S. pneumoniae (D)

# — patent US9597407B2, “Targeted antimicrobial moieties” (C3 Jian, Inc., priority 2009, dated 2017)
